Results on twelve molecules are retold here after patent US20250197424A1, “QUINOLINE COMPOUND AND USE THEREOF” (SHANGHAI PHARMACEUTICALS HOLDING CO., LTD., priority 2022, published 2025).

The assay addresses GTP-KRAS-G12D:SOS1 (Homo sapiens (Human), UniProt P01116, G12D). The assay is described as follows: GTP-KRAS-G12D:SOS1 binding inhibition. The protocol:
The IC50 of the compounds was fitted using a nonlinear regression equation with GraphPad Prism 8. The results are presented in Table 2: • Negative control: DMSO • Positive control: 100 μM BI-2852
The following nonlinear fitting formula was used to obtain the IC50 (half-maximal inhibitory concentration) of the compounds:
[formula] • X: logarithm of the compound concentration • Y: 665/615 Ratio

pIC50: −log10 of the molar value. Where a name gives a salt, the structure may show the parent alone.

Chain of GTP-KRAS-G12D:SOS1 (P01116-2 other isoform, or with tags, fused parts or gaps G12D): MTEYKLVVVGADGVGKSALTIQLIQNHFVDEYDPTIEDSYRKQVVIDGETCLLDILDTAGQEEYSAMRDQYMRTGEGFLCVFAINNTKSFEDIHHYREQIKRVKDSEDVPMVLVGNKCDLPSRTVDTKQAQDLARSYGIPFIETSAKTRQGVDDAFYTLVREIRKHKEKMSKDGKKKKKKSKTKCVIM

As to `CCc1cccc2cc(O)cc(-c3c(F)c4c5c(nc(OC[C@]67C[C@@H](F)CN6C[C@@H](CO)C7)nc5c3F)N3CC5CCC(N5)C3CO4)c12` (single isomer, unassigned) [Compound 23a, 4-((2R or 2S, 5aS,6S,9R)-1,3-Difluoro-13-(((2R,6S,7aS)-2-fluoro-6-(hydroxymethyl)tetrahydro-1H-pyrrolizin-7a(5H)-yl)methoxy)-5a,6,7,8,9,10-hexahydro-5H-6,9-epiminoazepino[2′,1′:3,4][1,4]oxazepino[5,6,7-de]quinazolin-2-yl)-5-ethylnaphthalen-2-ol dihydrochloride], the pIC50 was 5.43.
Turning to `CCc1cccc2cc(O)cc(-c3c(F)c4c5c(nc(OC[C@]67C[C@@H](F)CN6C[C@@H](CO)C7)nc5c3F)N3CC5CCC(N5)C3CO4)c12` (single isomer, unassigned) [Compound 23b, 4-((2S or 2R,5aS,6S,9R)-1,3-difluoro-13-(((2R,6S,7aS)-2-fluoro-6-(hydroxymethyl)tetrahydro-1H-pyrrolizin-7a(5H)-yl)methoxy)-5a,6,7,8,9,10-hexahydro-5H-6,9-epiminoazepino[2′,1′:3,4][1,4]oxazepino[5,6,7-de]quinazolin-2-yl)-5-ethylnaphthalen-2-ol dihydrochloride], the pIC50 was 8.24.
`Cc1cc(N)nc(-c2c(F)c3c4c(nc(OC[C@@]56CCCN5C[C@H](F)C6)nc4c2F)N2C[C@@H]4CCC(N4)[C@@H]2CCO3)c1C(F)(F)F` (single isomer, unassigned) [Compound 26a, 6-((2S or 2R,6aS,7S,10R)-1,3-Difluoro-14-(((2R,7aS)-2-fluorotetrahydro-1H-pyrrolizin-7a(5H)-yl)methoxy)-5,6,6a,7,8,9,10,11-octahydro-7,10-epiminoazepino[1′,2′: 5,6][1,5]oxazocino[4,3,2-de]quinazolin-2-yl)-4-methyl-5-(trifluoromethyl)pyridin-2-amine] gave a pIC50 of 6.61. Compared with the last molecule, the pIC50 is 1.63 log units lower.
Take `Cc1cc(N)nc(-c2c(F)c3c4c(nc(OC[C@@]56CCCN5C[C@H](F)C6)nc4c2F)N2C[C@@H]4CCC(N4)[C@H]2CCO3)c1C(F)(F)F` (single isomer, unassigned) [Compound 26b, 6-((2R or 2S, 6aS,7S,10R)-1,3-difluoro-14-(((2R,7aS)-2-fluorotetrahydro-1H-pyrrolizin-7a(5H)-yl)methoxy)-5,6,6a,7,8,9,10,11-octahydro-7,10-epiminoazepino[1′,2′: 5,6][1,5]oxazocino[4,3,2-de]quinazolin-2-yl)-4-methyl-5-(trifluoromethyl)pyridin-2-amine]: the pIC50 is 7.80.
`CCc1cccc2cc(O)cc(-c3c(F)c4c5c(nc(OC[C@]67C[C@@H](F)CN6C[C@@H](CN6CCCCC6)C7)nc5c3F)N3CC5CCC(N5)C3CO4)c12` (single isomer, unassigned) [Compound 27b, 4-((2S or 2R,5aS,6S,9R)-1,3-difluoro-13-(((2R,6R,7aS)-2-fluoro-6-(piperidin-1-ylmethyl)tetrahydro-1H-pyrrolizin-7a(5H)-yl)methoxy)-5a,6,7,8,9,10-hexahydro-5H-6,9-epiminoazepino[2′,1′:3,4][1,4]oxazepino[5,6,7-de]quinazolin-2-yl)-5-ethylnaphthalen-2-ol trihydrochloride]: the pIC50 was 7.76. The pIC50 values of the last two molecules are within 0.2 log units of each other.
In turn, `CCc1cccc2cc(O)cc(-c3c(F)c4c5c(nc(OC[C@]67C[C@@H](F)CN6C[C@@H](CN6CCOCC6)C7)nc5c3F)N3CC5CCC(N5)C3CO4)c12` (single isomer, unassigned) [Compound 28a, 4-((2R or 2S, 5aS,6S,9R)-1,3-Difluoro-13-(((2R,6R,7aS)-2-fluoro-6-(morpholinomethyl)tetrahydro-1H-pyrrolizin-7a(5H)-yl)methoxy)-5a,6,7,8,9,10-hexahydro-5H-6,9-epiminoazepino[2′,1′:3,4][1,4]oxazepino[5,6,7-de]quinazolin-2-yl)-5-ethylnaphthalen-2-ol trihydrochloride] gave a pIC50 of 5.28.
The value for `CCc1cccc2cc(O)cc(-c3c(F)c4c5c(nc(OC[C@]67C[C@@H](F)CN6C[C@@H](CN6CCOCC6)C7)nc5c3F)N3CC5CCC(N5)C3CO4)c12` (single isomer, unassigned) [Compound 28b, 4-((2S or 2R,5aS,6S,9R)-1,3-difluoro-13-(((2R,6R,7aS)-2-fluoro-6-(morpholinomethyl)tetrahydro-1H-pyrrolizin-7a(5H)-yl)methoxy)-5a,6,7,8,9,10-hexahydro-5H-6,9-epiminoazepino[2′,1′:3,4][1,4]oxazepino[5,6,7-de]quinazolin-2-yl)-5-ethylnaphthalen-2-ol trihydrochloride] was 7.82; that for `CCc1cccc2cc(O)cc(-c3c(F)c4c5c(nc(OC[C@]67C[C@@H](F)CN6C[C@@H](CN6CCN(C)CC6)C7)nc5c3F)N3CC5CCC(N5)C3CO4)c12` (single isomer, unassigned) [Compound 29b, 4-((2R or 2S, 5aS,6S,9R)-1,3-difluoro-13-(((2R,6R,7aS)-2-fluoro-6-((4-methylpiperazin-1-yl)methyl)tetrahydro-1H-pyrrolizin-7a(5H)-yl)methoxy)-5a,6,7,9,10-hexahydro-5H-6,9-epiminoazepino[2′,1′:3,4][1,4]oxazepino[5,6,7-de]quinazolin-2-yl)-5-ethylnaphthalen-2-ol tetrahydrochloride] was 7.80; that for `COc1ccc(-c2cc[nH]n2)c(-c2c(F)c3c4c(nc(OC[C@@]56CCCN5C[C@H](F)C6)nc4c2F)N2CC4CCC(N4)C2CO3)c1` (stereo partly drawn) [Compound 17, (5aS,6S,9R)-1,3-Difluoro-13-(((2R,7aS)-2-fluorotetrahydro-1H-pyrrolizin-7a(5H)-yl)methoxy)-2-(5-methoxy-2-(1H-pyrazol-3-yl)phenyl)-5a,6,7,8,9,10-hexahydro-5H-6,9-epiminoazepino[2′,1′:3,4][1,4]oxazepino[5,6,7-de]quinazoline dihydrochloride] was 5.08.
As for `Nc1nc2c(-c3c(F)c4c5c(nc(OC[C@@]67CCCN6C[C@H](F)C7)nc5c3F)N3CC5CCC(N5)C3CO4)ccc(F)c2s1` (stereo partly drawn) [Compound 19, 4-((5aS,6S,9R)-1,3-Difluoro-13-(((2R,7aS)-2-fluorotetrahydro-1H-pyrrolizin-7a(5H)-yl)methoxy)-5a,6,7,8,9,10-hexahydro-5H-6,9-epiminoazepino[2′,1′:3,4][1,4]oxazepino[5,6,7-de]quinazolin-2-yl)-7-fluorobenzo[d]thiazol-2-amine dihydrochloride], the pIC50 is 7.90.
On to `Nc1cc2ccccc2c(-c2c(F)c3c4c(nc(OC[C@@]56CCCN5C[C@H](F)C6)nc4c2F)N2CC4CCC(N4)C2CO3)n1` (stereo partly drawn) [Compound 22, 1-((5aS,6S,9R)-1,3-Difluoro-13-(((2R,7aS)-2-fluorotetrahydro-1H-pyrrolizin-7a(5H)-yl)methoxy)-5a,6,7,8,9,10-hexahydro-5H-6,9-epiminoazepino[2′,1′:3,4][1,4]oxazepino[5,6,7-de]quinazolin-2-yl) isoquinolin-3-amine], for which the pIC50 was 7.87.
As for `Oc1ccc(-c2cc[nH]n2)c(-c2c(F)c3c4c(nc(OC[C@@]56CCCN5C[C@H](F)C6)nc4c2F)N2CC4CCC(N4)C2CO3)c1` (stereo partly drawn) [Compound 24, 3-((5aS,6S,9R)-1,3-Difluoro-13-(((2R,7aS)-2-fluorotetrahydro-1H-pyrrolizin-7a(5H)-yl)methoxy)-5a,6,7,8,9,10-hexahydro-5H-6,9-epiminoazepino[2′,1′:3,4][1,4]oxazepino[5,6,7-de]quinazolin-2-yl)-4-(1H-pyrazol-3-yl) phenol dihydrochloride], the pIC50 was 5.69.
